Results reported in article PMC6538516 (Journal of Veterinary Science, 2019).
Where two headings read alike, the source gives them in different places.

How the values were obtained:
CYP1A = settings: hepatic microsomes from Beagles; ref 13 (Regmi et al.); cited from earlier work
[1] = Pharmacokinetics of p-acetaminophen in Bactrian camels, substrate only; type: in vivo, Bactrian camel; settings: Group 1, substrate only, 4 mg/kg intramuscular
CYP1A enzyme = type: in vivo, Bactrian camel; settings: Group 2, inhibitor (lomefloxacin) + substrate; p-acetaminophen 4 mg/kg intramuscular
[2] = p-acetaminophen injected into porcine animals; ref 7 (Qiu et al.); cited from earlier work
[3] = healthy cattle, oral administration; ref 8 (Sawaguchi et al.); cited from earlier work
[4] = rats, intramuscular injection; ref 9 (Yamasaki et al.); cited from earlier work
[5] = humans; ref 14 (Wijnands et al.); cited from earlier work

For `CCN1CCN(c2cc3c(cc2F)c(=O)c(C(=O)O)cn3C2CC2)CC1` [enrofloxacin], the CYP1A-inhibiting effect (CYP1A) is given as “inhibited CYP1A in a non-competitive manner”.
In the case of `CC(=O)Nc1ccc(O)cc1` [p-acetaminophen], the “Vd (volume of distribution under steady-state)” value [1] is reported as 4,416.8 ± 138.23 mL/kg, the AUC0-t ([1]; plasma) is reported as 5730 ± 310 ng·h/mL and the “AUC0-∞” value ([1]; plasma) is reported as 6010 ± 630 ng·h/mL. For the same compound, the Cmax ([1]; plasma) was 960 ± 430 ng/mL, the Tmax ([1]; plasma) was 1.70 ± 0.51 h and the AUC0-t (CYP1A enzyme) was 8880 ± 230 ng·h/mL. For the same compound, the “AUC0-∞” value (CYP1A enzyme) was 9150 ± 630 ng·h/mL, the Cmax (CYP1A enzyme) was 1220 ± 660 ng/mL and the Tmax (CYP1A enzyme) was 0.833 ± 0.37 h. The “Vd (volume of distribution under steady-state)” value (CYP1A enzyme) was 3,934.0 ± 90.03 mL/kg, the AUC0-t [2] was 23950 ± 6980 ng·h/mL and the T1/2 [2] was 1.76 ± 0.91 h. For the same compound, the Tmax [2] was 0.41 ± 0.13 h, the MRT [3] was 4.70 ± 0.93 h and the T1/2 [3] was 2.41 ± 0.58 h. The Tmax [3] was 1.40 ± 0.55 h, the MRT [4] was 0.40 ± 0.03 h and the T1/2 [4] was 0.30 ± 0.02 h.
For `CC1COc2c(N3CCN(C)CC3)c(F)cc3c(=O)c(C(=O)O)cn1c23` (centres unmarked) [ofloxacin], the CYP1A-inhibiting effect (CYP1A) is given as “inhibited CYP1A in a non-competitive manner”.
In the case of `C[C@@H]1CN(c2c(F)c(F)c3c(=O)c(C(=O)O)cn(C4CC4)c3c2F)C[C@H](C)N1` [orbifloxacin], the CYP1A-inhibiting effect (CYP1A) is given as “inhibited CYP1A in a non-competitive manner”.
For `CCn1cc(C(=O)O)c(=O)c2cc(F)c(N3CCNCC3)cc21` [norfloxacin], the CYP1A-inhibiting effect (CYP1A) is given as “inhibited CYP1A in a non-competitive manner”.
For `CCn1cc(C(=O)O)c(=O)c2cc(F)c(N3CCNCC3)nc21` [enoxacin], the “effect on total body clearance of theophylline” value [5] is listed as “significantly decreased”.
